In patent US11945794B2, “Nuclear transport modulators and uses thereof” (Karyopharm Therapeutics Inc., priority 2013, dated 2024):

Tests used:
Experiment in all cases: MTT cell proliferation assay
Assay type in all cases: cell-based
Z138 cells = details: Homo sapiens, Z-138, approximately 64-72 hours
Method: (§1) The MTT cell proliferation assay was used to study the cytotoxic properties of the compounds. The assay was performed according to the method described by Roche Molecular Biochemicals, with minor modifications. The assay is based on the cleavage of the tetrazolium salt, MTT, in the presence of an electron-coupling reagent. The water-insoluble formazan salt produced must be solubilized in an additional step. Cells grown in a 96-well tissue culture plate were incubated with the MTT solution for approximately 4 hours. After this incubation period, a water-insoluble formazan dye formed. After solubilization, the formazan dye was quantitated using a scanning multi-well spectrophotometer (ELISA reader). […] The cells were seeded at 5,000-10,000 cells in each well of 96-well plate in 100 μL of fresh culture medium and were allowed to attach overnight. The stock solutions of the compounds were diluted in 100 μL cell culture medium to obtain eight concentrations of each test compound, ranging from 1 nM to 30 μM. […] All optical densities were measured at 490 nm using a Vmax Kinetic Microplate Reader (Molecular Devices). In most cases, the assay was performed in duplicate and the results were presented as a mean percent inhibition to the negative control±SE. The following formula was used to calculate the percent of inhibition: Inhibition (%)=(1−(ODo/OD))×100.
(§2) The compounds were tested against Z138, MM1S and 3T3 cells. The Z138 cell line is a mature B-cell acute lymphoblastic leukemia cell line derived from a patient with chronic lumphocytic leukemia. The MM1S cell line was established from the peripheral blood of a human multiple myeloma patient. 3T3 cells are standard fibroblast cells; they were originally isolated from Swiss mouse embryo tissue.

MM1S cells = details: Homo sapiens, MM1.S, approximately 64-72 hours
Method: as §1, §2

3T3 cells = details: Mus musculus, NIH3T3, approximately 64-72 hours
Method: as §1, §2

Row | Structure (SMILES) | IC50 (MM1S cells) [µM] | IC50 (Z138 cells) [µM] | IC50 (3T3 cells) [µM]
1 | O=C(O)/C(=C/n1cnc(-c2cc(C(F)(F)F)cc(C(F)(F)F)c2)n1)c1cccnc1 [Compound 103, (E)-3-(3-(3,5-bis(trifluoromethyl)phenyl)-1H-1,2,4-triazol-1-yl)-2-(pyridin-3-yl)acrylic acid] | > 30 | > 30 | > 30
2 | N#C/C(=C/n1cnc(-c2cc(C(F)(F)F)cc(C(F)(F)F)c2)n1)c1nccs1 [Compound 110, (Z)-3-(3-(3,5-bis(trifluoromethyl)phenyl)-1H-1,2,4-triazol-1-yl)-2-(thiazol-2-yl)acrylonitrile] | 0.1 to 5 |  | 
3 | CN(C)C(=O)/C(=C/n1cnc(-c2cc(C(F)(F)F)cc(C(F)(F)F)c2)n1)c1cccnc1 [Compound 112, (E)-3-(3-(3,5-bis(trifluoromethyl)phenyl)-1H-1,2,4-triazol-1-yl)-N,N-dimethyl-2-(pyridin-3-yl)acrylamide] | > 30 |  | 
4 | Cc1noc(C)c1/C(=C\n1cnc(-c2cc(C(F)(F)F)cc(C(F)(F)F)c2)n1)C(=O)O [Compound 117, (E)-3-(3-(3,5-bis(trifluoromethyl)phenyl)-1H-1,2,4-triazol-1-yl)-2-(3,5-dimethylisoxazol-4-yl) acrylic acid] | > 30 |  | 
5 | COc1ccc(/C(=C\n2cnc(-c3cc(C(F)(F)F)cc(C(F)(F)F)c3)n2)C(=O)O)cn1 [Compound 121, (E)-3-(3-(3,5-bis(trifluoromethyl)phenyl)-1H-1,2,4-triazol-1-yl)-2-(6-methoxypyridin-3-yl) acrylic acid] | > 30 |  | 
6 | CC(C)OC(=O)/C(=C/n1cnc(-c2cc(C(F)(F)F)cc(C(F)(F)F)c2)n1)c1ccoc1 [Compound 122, isopropyl (E)-3-(3-(3,5-bis (trifluoromethyl)phenyl)-1H-1,2,4-triazol-1-yl)-2-(furan-3-yl) acrylate] | 0.1 to 5 |  | 
7 | O=C(O)/C(=C/n1cnc(-c2cc(C(F)(F)F)cc(C(F)(F)F)c2)n1)c1cncnc1 [Compound 123, (E)-3-(3-(3,5-bis(trifluoromethyl)phenyl)-1H-1,2,4-triazol-1-yl)-2-(pyrimidin-5-yl) acrylic acid] | > 30 |  | 
8 | O=C(O)/C(=C/n1cnc(-c2cc(C(F)(F)F)cc(C(F)(F)F)c2)n1)c1cncc(F)c1 [Compound 125, (E)-3-(3-(3,5-bis(trifluoromethyl)phenyl)-1H-1,2,4-triazol-1-yl)-2-(5-fluoropyridin-3-yl)acrylic acid] | > 30 |  | 
9 | NC(=O)/C(=C/n1cnc(-c2cc(C(F)(F)F)cc(C(F)(F)F)c2)n1)c1cncc(F)c1 [Compound 126, (E)-3-(3-(3,5-Bis(trifluoromethyl)phenyl)-1H-1,2,4-triazol-1-yl)-2-(5-fluoropyridin-3-yl)acrylamide] | < 0.1 | < 0.1 | > 30
10 | COc1ccc(/C(=C\n2cnc(-c3cc(C(F)(F)F)cc(C(F)(F)F)c3)n2)C(N)=O)cn1 [Compound 127, (E)-3-(3-(3,5-bis-(trifluoromethyl)-phenyl)-1H-1,2,4-triazol-1-yl)-2-(6-methoxypyridin-3-yl)acrylamide] | 0.1 to 5 |  | 
11 | NC(=O)/C(=C/n1cnc(-c2cc(C(F)(F)F)cc(C(F)(F)F)c2)n1)c1ccoc1 [Compound 129, (E)-3-(3-(3,5-bis(trifluoromethyl)phenyl)-1H-1,2,4-triazol-1-yl)-2-(furan-3-yl) acrylamide] | 0.1 to 5 |  | 
12 | Cn1cc(/C(=C\n2cnc(-c3cc(C(F)(F)F)cc(C(F)(F)F)c3)n2)C(=O)O)cn1 [Compound 131, (E)-3-(3-(3,5-bis(trifluoromethyl)phenyl)-1H-1,2,4-triazol-1-yl)-2-(1-methyl-1H-pyrazol-4-yl)acrylic acid] | 0.1 to 5 |  | 
13 | NC(=O)/C(=C/n1cnc(-c2cc(C(F)(F)F)cc(C(F)(F)F)c2)n1)c1ccnnc1 [Compound 133, (E)-3-(3-(3,5-bis(trifluoromethyl)phenyl)-1H-1,2,4-triazol-1-yl)-2-(pyridazin-4-yl)acrylamide] | < 0.1 | < 0.1 | 5 to 30
14 | NC(=O)/C(=C/n1cnc(-c2cc(C(F)(F)F)cc(C(F)(F)F)c2)n1)c1cccc(F)n1 [Compound 134, (E)-3-(3-(3,5-bis(trifluoromethyl)phenyl)-1H-1,2,4-triazol-1-yl)-2-(6-fluoropyridin-2-yl)acrylamide] | < 0.1 | 0.1 to 5 | 0.1 to 5
15 | NC(=O)/C(=C/n1cnc(-c2cc(C(F)(F)F)cc(C(F)(F)F)c2)n1)c1ccc(F)nc1 [Compound 139, (E)-3-(3-(3,5-bis(trifluoromethyl)phenyl)-1H-1,2,4-triazol-1-yl)-2-(6-fluoropyridin-3-yl)acrylamide] | 0.1 to 5 | 0.1 to 5 | > 30
16 | NC(=O)/C(=C/n1cnc(-c2cc(C(F)(F)F)cc(C(F)(F)F)c2)n1)c1ccccc1 [Compound 146, (E)-3-(3-(3,5-bis(trifluoromethyl)phenyl)-1H-1,2,4-triazol-1-yl)-2-phenylacrylamide] | 0.1 to 5 | 0.1 to 5 | > 30
17 | NC(=O)/C(=C/n1cnc(-c2cc(C(F)(F)F)cc(C(F)(F)F)c2)n1)c1ccc(-c2cccnc2)cc1 [Compound 151, (E)-3-(3-(3,5-bis(trifluoromethyl)phenyl)-1H-1,2,4-triazol-1-yl)-2-(4-(pyridin-3-yl)phenyl)acrylamide] | 0.1 to 5 | 5 to 30 | > 30
18 | NC(=O)/C(=C\n1cnc(-c2cc(C(F)(F)F)cc(C(F)(F)F)c2)n1)c1cccnc1F [Compound 157, (Z)-3-(3-(3,5-bis(trifluoromethyl)phenyl)-1H-1,2,4-triazol-1-yl)-2-(2-fluoropyridin-3-yl)acrylamide] | 0.1 to 5 | 0.1 to 5 | 0.1 to 5

More lines, main results first:

Row | IC50 (MM1S cells) [µM] | Structure (SMILES) | IC50 (Z138 cells) [µM] | IC50 (3T3 cells) [µM]
19 | 0.1 to 5 | CC(C)OC(=O)/C(=C/n1cnc(-c2cc(C(F)(F)F)cc(C(F)(F)F)c2)n1)c1ccncc1 [Compound 106, isopropyl (E)-3-(3-(3,5-bis(trifluoromethyl)phenyl)-1H-1,2,4-triazol-1-yl)-2-(pyridin-4-yl)acrylate] |  | 
20 | 5 to 30 | O=C(O)/C(=C/n1cnc(-c2cc(C(F)(F)F)cc(C(F)(F)F)c2)n1)c1ccncc1 [Compound 107, (E)-3-(3-(3,5-bis(trifluoromethyl)phenyl)-1H-1,2,4-triazol-1-yl)-2-(pyridin-4-yl)acrylic acid] |  | 
21 | 0.1 to 5 | CC(C)OC(=O)/C(=C/n1cnc(-c2cc(C(F)(F)F)cc(C(F)(F)F)c2)n1)c1nccs1 [Compound 109, isopropyl (Z)-3-(3-(3,5-bis(trifluoromethyl)phenyl)-1H-1,2,4-triazol-1-yl)-2-(thiazol-2-yl)acrylate] |  | 
22 | > 30 | O=C(O)/C(=C/n1cnc(-c2cc(C(F)(F)F)cc(C(F)(F)F)c2)n1)c1ccoc1 [Compound 128, (E)-3-(3-(3,5-bis(trifluoromethyl)phenyl)-1H-1,2,4-triazol-1-yl)-2-(furan-3-yl) acrylic acid] |  | 
23 | < 0.1 | NC(=O)/C(=C/n1cnc(-c2cc(C(F)(F)F)cc(C(F)(F)F)c2)n1)c1cccnc1F [Compound 135, (E)-3-(3-(3,5-bis(trifluoromethyl)phenyl)-1H-1,2,4-triazol-1-yl)-2-(2-fluoropyridin-3-yl)acrylamide] | 0.1 to 5 | > 30
24 | 0.1 to 5 | NC(=O)/C(=C/n1cnc(-c2cc(C(F)(F)F)cc(C(F)(F)F)c2)n1)c1cccnc1Cl [Compound 144, (E)-3-(3-(3,5-bis(trifluoromethyl)phenyl)-1H-1,2,4-triazol-1-yl)-2-(2-chloropyridin-3-yl)acrylamide] | 0.1 to 5 | > 30
25 | 5 to 30 | NC(=O)/C(=C/n1cnc(-c2cc(C(F)(F)F)cc(C(F)(F)F)c2)n1)c1ccc(-c2ccccc2)c(F)c1 [Compound 150, (E)-3-(3-(3,5-bis(trifluoromethyl)phenyl)-1H-1,2,4-triazol-1-yl)-2-(2-fluorobiphenyl-4-yl)acrylamide] | 5 to 30 | > 30
26 | 0.1 to 5 | NC(=O)/C(=C/n1cnc(-c2cc(C(F)(F)F)cc(C(F)(F)F)c2)n1)c1ccc2cn[nH]c2c1 [Compound 152, (E)-3-(3-(3,5-bis(trifluoromethyl)phenyl)-1H-1,2,4-triazol-1-yl)-2-(1H-indazol-6-yl)acrylamide] | 0.1 to 5 | > 30
27 | < 0.1 | NC(=O)/C(=C\n1cnc(-c2cc(C(F)(F)F)cc(C(F)(F)F)c2)n1)c1cncnc1 [Compound 153, (Z)-3-(3-(3,5-bis(trifluoromethyl)phenyl)-1H-1,2,4-triazol-1-yl)-2-(pyrimidin-5-yl)acrylamide] | 0.1 to 5 | > 30
28 | 0.1 to 5 | NC(=O)/C(=C\n1cnc(-c2cc(C(F)(F)F)cc(C(F)(F)F)c2)n1)c1ccc(F)nc1 [Compound 154, (Z)-3-(3-(3,5-bis(trifluoromethyl)phenyl)-1H-1,2,4-triazol-1-yl)-2-(6-fluoropyridin-3-yl)acrylamide] |  | 
